Laboratory results: patent US20190352691A1, “PATHOGEN DETECTION” (priority 2013, published 2019)

Key:
[1] = system: Mtb; assay: anti-tuberculosis activity (whole cell); assay type: cell-based, Mycobacterium tuberculosis
[2] = system: A. baumannii ATCC 17691; conditions: cited from earlier work

SMILES | activity against tuberculosis [1] | activity against Acinetobacter baumannii [2]
C[C@@H]1CC[C@H]2[C@@H](C)C(=O)O[C@@H]3O[C@@]4(C)CC[C@@H]1[C@]32OO4 [artemisinin] | not active | 
N[C@@H](C(=O)N[C@@H]1C(=O)N2C(C(=O)O)=C(Cl)CC[C@H]12)c1ccccc1 [Lorabid] |  | not active
